PubChem BioAssay AID248 (DTP/NCI, 2004)
“And” between values parts separate entries of the source, which are not always exact repeats. Equal values may be shown once. Inconclusive results and toxic doses are left out. Cut-off read from the data, not from the text of the source: active = T/C of 150% or more; inactive = T/C below 125%.

Tested on: L1210 leukemia ip in BDF1 mice, survival T/C
Assay: NCI In Vivo Anticancer Drug Screen. Data for tumor model L1210 Leukemia (intraperitoneal) in B6D2F1 (BDF1) mice
Settings: endpoint: mean survival time, higher = longer survival
Outline: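 Antitumor effect is assessed in tumor-bearing animals. Survival in the compound arm is compared with a vehicle-dosed control arm and expressed as their quotient.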

[1] = dose: 100.0 mg/kg/injection, schedule: Q01DX009 (ip), vehicle: Klucel (hydroxypropylcellulose) (HPC)
[2] = dose: 200.0 mg/kg/injection, schedule: Q01DX009 (ip), vehicle: Klucel (hydroxypropylcellulose) (HPC)
[3] = dose: 400.0 mg/kg/injection, schedule: Q01DX009 (ip), vehicle: Klucel (hydroxypropylcellulose) (HPC)
[4] = dose: 100.0 mg/kg/injection, schedule: Q04DX002 (ip), vehicle: saline
[5] = dose: 200.0 mg/kg/injection, schedule: Q04DX002 (ip), vehicle: saline

Measured: T/C

O=C1c2ccccc2C(=O)N1CCc1ccccc1
inactive: [1] 93 % of control | dose: 100.0 mg/kg/injection, schedule: Q04DX003 (ip), vehicle: Klucel (hydroxypropylcellulose) (HPC) 97 % of control and 101 % of control | [2] 96 % of control | dose: 200.0 mg/kg/injection, schedule: Q04DX003 (ip), vehicle: Klucel (hydroxypropylcellulose) (HPC) 94 % of control and 97 % of control | [3] 95 % of control | dose: 400.0 mg/kg/injection, schedule: Q04DX003 (ip), vehicle: Klucel (hydroxypropylcellulose) (HPC) 94 % of control and 101 % of control

O=c1[nH]c2ccccc2nc1C(Cl)(Cl)Cl
inactive: dose: 100.0 mg/kg/injection, schedule: Q04DX002 (ip), vehicle: Klucel (hydroxypropylcellulose) (HPC) 112 % of control | dose: 200.0 mg/kg/injection, schedule: Q04DX002 (ip), vehicle: Klucel (hydroxypropylcellulose) (HPC) 105 % of control

CCOc1ccc(NC(=O)Oc2ccc(SC)c(C)c2)cc1
inactive: [1] 91 % of control | [2] 91 % of control | [3] 96 % of control

COc1cc(C)ccc1I
inactive: dose: 50.0 mg/kg/injection, schedule: Q01DX001 (ip), vehicle: saline with Tween-80 100 % of control | dose: 100.0 mg/kg/injection, schedule: Q01DX001 (ip), vehicle: saline with Tween-80 100 % of control | dose: 200.0 mg/kg/injection, schedule: Q01DX001 (ip), vehicle: saline with Tween-80 100 % of control

Brc1ccc(-c2nc3ccccc3[nH]2)cc1
inactive: dose: 100.0 mg/kg/injection, schedule: Q01DX009 (ip), vehicle: saline with Tween-80 93 % of control | dose: 100.0 mg/kg/injection, schedule: Q04DX003 (ip), vehicle: saline with Tween-80 101 % of control | dose: 200.0 mg/kg/injection, schedule: Q01DX009 (ip), vehicle: saline with Tween-80 93 % of control | dose: 200.0 mg/kg/injection, schedule: Q04DX003 (ip), vehicle: saline with Tween-80 104 % of control | dose: 400.0 mg/kg/injection, schedule: Q01DX009 (ip), vehicle: saline with Tween-80 93 % of control | dose: 400.0 mg/kg/injection, schedule: Q04DX003 (ip), vehicle: saline with Tween-80 101 % of control

CSC(SC)C(O)C(O)C(O)C(O)CO (stereo unspecified)
inactive: dose: 50.0 mg/kg/injection, schedule: Q04DX002 (ip), vehicle: saline 103 % of control | [4] 113 % of control | [5] 92 % of control

CNc1ccccc1C(=O)N/N=C/c1c(O)ccc2ccccc12
inactive: [4] 99 % of control | [5] 96 % of control | dose: 400.0 mg/kg/injection, schedule: Q04DX002 (ip), vehicle: saline 96 % of control

FCc1nc2nc(Cl)c(Cl)nc2[nH]1
inactive: dose: 12.5 mg/kg/injection, schedule: Q01DX009 (ip), vehicle: saline 100 % of control | dose: 25.0 mg/kg/injection, schedule: Q01DX009 (ip), vehicle: saline 96 % of control | dose: 50.0 mg/kg/injection, schedule: Q01DX009 (ip), vehicle: saline 88 % of control | dose: 100.0 mg/kg/injection, schedule: Q04DX003 (ip), vehicle: saline 97 % of control | dose: 200.0 mg/kg/injection, schedule: Q04DX003 (ip), vehicle: saline 97 % of control
